Test system: 11 strains of C. albicans and tropicalis
Experiment: in vitro antifungal activity in EMEM (geometric mean MIC)
Format: cell-based
Settings: Candida albicans, read-out: geometric mean MICs

MIC: ≥ 0.01 µg/mL
Structure (SMILES): CC[C@@H]([C@H](C)O)n1ncn(-c2ccc(N3CCN(c4ccc(OC[C@H]5CC[C@](Cn6cncn6)(c6ccc(F)cc6F)O5)cc4)CC3)cc2)c1=O

Reference: patent EP0837859B1, “TETRAHYDROFURAN ANTIFUNGALS” (SCHERING CORPORATION, priority 1995, dated 1997)
